Measurements taken from ChEMBL document CHEMBL5370610, “Urotensin II Receptor Modulation with 1,3,4-Benzotriazepin-2-one Tetrapeptide Mimics” (J Med Chem, 2023).
Calls of active or inactive are those of the source. The rule behind the calls is not given here.

How the values were obtained:
[1] = target: T1, Guanine nucleotide-binding protein G(q) subunit alpha (Homo sapiens) (UniProt P50148); experiment: Agonist activity at RLucII-tagged Galpha-q (unknown origin) expressed in HEK293 cells co-expressing human UT/GFP10-tagged G-gamma assessed as activation of Galpha-q at 10^-5 M by BRET assay relative to hUII; format: cell-based; details: dose 1.0 10^-5M
T1 sequence (whole entry): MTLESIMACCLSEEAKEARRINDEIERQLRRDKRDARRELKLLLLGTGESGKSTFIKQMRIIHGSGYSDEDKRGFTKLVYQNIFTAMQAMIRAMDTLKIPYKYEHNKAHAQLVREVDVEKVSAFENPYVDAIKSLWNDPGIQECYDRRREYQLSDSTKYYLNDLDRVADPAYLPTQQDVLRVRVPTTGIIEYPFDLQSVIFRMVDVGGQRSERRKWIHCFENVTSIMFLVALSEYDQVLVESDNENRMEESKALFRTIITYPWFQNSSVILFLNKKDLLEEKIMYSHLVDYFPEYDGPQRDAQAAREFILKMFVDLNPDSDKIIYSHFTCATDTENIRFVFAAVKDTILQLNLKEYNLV

[2] = target: T2, Guanine nucleotide-binding protein G(q) subunit alpha (Homo sapiens, UniProt P50148); experiment: Agonist activity at RLucII-tagged Galpha-q (unknown origin) expressed in HEK293 cells co-expressing human UT/GFP10-tagged G-gamma assessed as activation of Galpha-q by BRET assay; format: cell-based
T2 sequence (P50148 whole entry): T1 sequence (whole entry)

Aorta [3] = experiment: Ex vivo modulatory effect on URP-induced contractile activity in Sprague-Dawley rat aortic ring at 10^-6 M pretreated for 30 mins followed by URP addition (reference value: 100 +/- 8 %); format: functional; details: 0.5 h, dose 1 10^-6M
[4] = Agonist activity at RLucII-tagged Galpha-13 (unknown origin) expressed in HEK293 cells co-expressing human UT/GFP10-tagged G-gamma assessed as activation of Galpha-13 by BRET assay; format: cell-based
Aorta [5] = experiment: Ex vivo modulatory effect on hUII-induced contractile activity in Sprague-Dawley rat aortic ring at 10^-6 M pretreated for 30 mins followed by hUII addition (reference value: 100 +/- 9 %); format: functional; details: 0.5 h, dose 1 10^-6M
Aorta [6] = experiment: Ex vivo modulatory effect on URP-induced contractile activity in Sprague-Dawley rat aortic ring (reference value: 8.06 +/- 0.27); format: functional, tissue-based
Aorta [7] = experiment: Ex vivo modulatory effect on hUII-induced contractile activity in Sprague-Dawley rat aortic ring (reference value: 8.37 +/- 0.08); format: functional, tissue-based
HEK293 [8] = experiment: Agonist activity at RLucII-tagged Galpha-13 (unknown origin) expressed in HEK293 cells co-expressing human UT/GFP10-tagged G-gamma assessed as activation of Galpha-13 at 10^-5 M by BRET assay relative to hUII; format: cell-based; details: filed as agonist, dose 1.0 10^-5M
[9] = Agonist activity at RLucII-tagged Galpha-i (unknown origin) expressed in HEK293 cells co-expressing human UT/GFP10-tagged G-gamma assessed as activation of Galpha-i by BRET assay; format: cell-based
Beta-arrestin-1 [10] = target: T3, Beta-arrestin-1 (Homo sapiens, UniProt P49407); experiment: Agonist activity at RLucII/GFP10-tagged beta-arrestin-1 (unknown origin) expressed in HEK293 cells co-expressing human UT assessed as beta-arrestin recruitment at 10^-5 M by BRET assay relative to hUII; format: cell-based; details: filed as agonist, dose 1.0 10^-5M
Beta-arrestin-1 [11] = target: T3, Beta-arrestin-1; experiment: Agonist activity at RLucII/GFP10-tagged beta-arrestin-1 (unknown origin) recruitment expressed in HEK293 cells co-expressing human UT assessed as beta-arrestin recruitment by BRET assay; format: cell-based
HEK293 [12] = experiment: Agonist activity at RLucII-tagged Galpha-i (unknown origin) expressed in HEK293 cells co-expressing human UT/GFP10-tagged G-gamma assessed as activation of Galpha-i at 10^-5 M by BRET assay relative to hUII; format: cell-based; details: dose 1.0 10^-5M
[13] = Antagonist activity at hUII-activated RLucII-tagged Galpha-i (unknown origin) expressed in HEK293 cells co-expressing human UT/GFP10-tagged G-gamma by BRET assay (reference value: 7.41 +/- 0.15); format: cell-based
HEK293 [14] = experiment: Antagonist activity at hUII-activated RLucII-tagged Galpha-i (unknown origin) expressed in HEK293 cells co-expressing human UT/GFP10-tagged G-gamma at 10^-6 M by BRET assay (reference value: 100 +/- 5 %); format: cell-based; details: filed as antagonist, dose 1.0 10^-6M
HEK293 [15] = experiment: Antagonist activity at hUII-activated RLucII-tagged Galpha-q (unknown origin) expressed in HEK293 cells co-expressing human UT/GFP10-tagged G-gamma at 10^-6 M by BRET assay (reference value: 100 +/- 4 %); format: cell-based; details: filed as antagonist, dose 1.0 10^-6M
[16] = target: T1, Guanine nucleotide-binding protein G(q) subunit alpha (Homo sapiens); experiment: Agonist activity at RLucII-tagged Galpha-q (unknown origin) expressed in HEK293 cells co-expressing human UT/GFP10-tagged G-gamma assessed as activation of Galpha-q at 10^-5 M by BRET assay; format: cell-based; details: dose 1.0 10^-5M
HEK293 [17] = experiment: Antagonist activity at URP-activated RLucII-tagged Galpha-i (unknown origin) expressed in HEK293 cells co-expressing human UT/GFP10-tagged G-gamma at 10^-6 M by BRET assay (reference value: 100 +/- 7 %); format: cell-based; details: filed as antagonist, dose 1.0 10^-6M
[18] = target: T2, Guanine nucleotide-binding protein G(q) subunit alpha; experiment: Antagonist activity at hUII-activated RLucII-tagged Galpha-q (unknown origin) expressed in HEK293 cells co-expressing human UT/GFP10-tagged G-gamma by BRET assay (reference value: 8.26 +/- 0.09); format: cell-based
[19] = target: T2, Guanine nucleotide-binding protein G(q) subunit alpha; experiment: Antagonist activity at URP-activated RLucII-tagged Galpha-q (unknown origin) expressed in HEK293 cells co-expressing human UT/GFP10-tagged G-gamma by BRET assay (reference value: 7.33 +/- 0.10); format: cell-based
[20] = target: T1, Guanine nucleotide-binding protein G(q) subunit alpha (Homo sapiens); experiment: Antagonist activity at URP-activated RLucII-tagged Galpha-q (unknown origin) expressed in HEK293 cells co-expressing human UT/GFP10-tagged G-gamma at 10^-6 M by BRET assay (reference value: 100 +/- 4 %); format: cell-based; details: filed as antagonist, dose 1.0 10^-6M
HEK293 [21] = experiment: Agonist activity at RLucII-tagged Galpha-i (unknown origin) expressed in HEK293 cells co-expressing human UT/GFP10-tagged G-gamma assessed as activation of Galpha-i at 10^-5 M by BRET assay; format: cell-based; details: dose 1.0 10^-5M
[22] = Antagonist activity at URP-activated RLucII-tagged Galpha-i (unknown origin) expressed in HEK293 cells co-expressing human UT/GFP10-tagged G-gamma by BRET assay (reference value: 7.10 +/- 0.19); format: cell-based

T3 sequence (P49407 whole entry): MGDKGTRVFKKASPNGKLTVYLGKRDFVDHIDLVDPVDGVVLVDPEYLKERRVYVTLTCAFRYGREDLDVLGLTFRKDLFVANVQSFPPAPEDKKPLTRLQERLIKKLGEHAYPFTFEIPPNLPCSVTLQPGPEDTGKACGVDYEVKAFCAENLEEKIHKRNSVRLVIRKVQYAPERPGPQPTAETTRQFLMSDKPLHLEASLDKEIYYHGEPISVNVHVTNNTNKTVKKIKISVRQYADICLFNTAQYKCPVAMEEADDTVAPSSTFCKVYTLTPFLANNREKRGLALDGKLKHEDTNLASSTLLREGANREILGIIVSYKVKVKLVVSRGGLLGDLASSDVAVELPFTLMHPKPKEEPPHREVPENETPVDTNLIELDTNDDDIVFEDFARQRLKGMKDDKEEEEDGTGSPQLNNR

Row | Structure (SMILES) | EC50 [2] | Emax at 1 µM (Aorta [3]) | EC50 [4] | Emax at 1 µM (Aorta [5]) | EC50 (Aorta [6]) | EC50 (Aorta [7]) | Emax (HEK293 [8]) | EC50 [9] | Emax (Beta-arrestin-1 [10]) | EC50 (Beta-arrestin-1 [11]) | Emax (HEK293 [12]; filed as agonist) | Emax (HEK293 [15]) | Activity [16] | EC50 [18] | EC50 [19] | Emax [20] | further results
1 | CC(C)[C@H](NC(=O)[C@@H]1CSSC[C@H](NC(=O)[C@H](C)N)C(=O)N[C@@H](Cc2ccccc2)C(=O)N[C@@H](Cc2c[nH]c3ccccc23)C(=O)N[C@@H](CCCCN)C(=O)N[C@@H](Cc2ccc(O)cc2)C(=O)N1)C(=O)O | 8.91 nM | – | – | – | – | – | – | – | – | – | – | – | – | – | – | – | Emax ([1]; filed as agonist): 101%
2 | CN(Cc1ccccc1)C(=O)c1ccc2c(c1)N(Cc1ccc(-c3ccccc3)cc1)C(=O)N(CCCCN)N=C2/C=C/c1ccc(O)cc1 | > 10000 nM | 120% | 178 nM | 61% | 3.31 nM | 0.955 nM | 129% | 589 nM | 82% | 117 nM | 73% | – | – | – | – | – | Emax [1]: 37%
3 | COc1ccc(/C=C/C2=NN(CCCCN)C(=O)N(Cc3ccc(-c4ccccc4)cc3)c3cc(C(=O)NCCCc4ccccc4)ccc32)cc1 | > 10000 nM | 77% | 20.9 nM | 252% | 3.72 nM | 0.741 nM | 103% | > 10000 nM | 98% | 1200 nM | – | – | – | – | – | – | Emax ([1]; filed as agonist): 54%; Emax (HEK293 [12]): 18%
4 | COc1ccc(/C=C/C2=NN(CCCCN)C(=O)N(Cc3ccc(-c4ccccc4)cc3)c3cc(C(=O)NCc4ccccc4)ccc32)cc1 | – | 27% | 81.3 nM | 85% | 8.13 nM | 0.661 nM | 122% | – | 98% | 9.33 nM | – | 90% | inactive | 13.2 nM | 43.7 nM | 79% | EC50 [13]: 11.7 nM; Emax (HEK293 [14]): 80%; Emax (HEK293 [17]): 63%; Activity (HEK293 [21]): inactive; EC50 [22]: 148 nM
5 | NCCCCN1N=C(CCc2ccc(O)cc2)c2ccc(C(=O)NCCCc3ccccc3)cc2N(Cc2ccc(-c3ccccc3)cc2)C1=O | – | 112% | 21.9 nM | 143% | 4.07 nM | 1.02 nM | 119% | > 10000 nM | 165% | 174 nM | 45% | 65% | inactive | 5.89 nM | 18.6 nM | 76% | –
6 | NCCCCN1N=C(/C=C/c2ccc(O)cc2)c2ccc(C(=O)NCc3ccccc3)cc2N(Cc2ccc(-c3ccccc3)cc2)C1=O | – | 58% | 10.5 nM | 121% | 13.5 nM | 1.1 nM | 115% | > 10000 nM | 275% | 1230 nM | – | 85% | inactive | 7.08 nM | 17 nM | 111% | Emax (HEK293 [12]): 30%
7 | NCCCCN1N=C(CCc2ccc(O)cc2)c2ccc(C(=O)NCCOc3ccccc3)cc2N(Cc2ccc(-c3ccccc3)cc2)C1=O | – | 83% | 288 nM | 197% | 16.2 nM | 6.17 nM | 215% | > 10000 nM | 198% | 1780 nM | 51% | 95% | inactive | 6.92 nM | 34.7 nM | 81% | –
8 | CN(Cc1ccccc1)C(=O)c1ccc2c(c1)N(Cc1ccc(-c3ccccc3)cc1)C(=O)N(CCCCN)N=C2CCc1ccc(O)cc1 | – | 71% | 302 nM | 70% | 43.7 nM | 6.76 nM | 152% | – | 194% | 933 nM | – | 94% | inactive | 8.51 nM | 28.2 nM | 92% | EC50 [13]: 41.7 nM; Emax (HEK293 [14]): 89%; Emax (HEK293 [17]): 91%; Activity (HEK293 [21]): inactive; EC50 [22]: 178 nM
9 | NCCCCN1N=C(/C=C/c2ccc(O)cc2)c2ccc(C(=O)NCCCc3ccccc3)cc2N(Cc2ccc(-c3ccccc3)cc2)C1=O | > 10000 nM | 161% | 16.2 nM | 123% | 1.55 nM | 14.5 nM | 104% | 1170 nM | 108% | 851 nM | 75% | – | – | – | – | – | Emax [1]: 26%
10 | CC(C)[C@H](NC(=O)[C@@H]1CSSC[C@H](NC(=O)[C@H](CC(=O)O)NC(=O)[C@@H]2CCCN2C(=O)[C@@H](NC(=O)[C@@H](N)CCC(=O)O)[C@@H](C)O)C(=O)N[C@@H](Cc2ccccc2)C(=O)N[C@@H](Cc2c[nH]c3ccccc23)C(=O)N[C@@H](CCCCN)C(=O)N[C@@H](Cc2ccc(O)cc2)C(=O)N1)C(=O)O [UROTENSIN-II] | 13.8 nM | – | 16.2 nM | – | – | – | – | 18.2 nM | – | 20.4 nM | – | – | – | – | – | – | –
